Measured values as given in publication PMC9403976, “Elucidating the path to Plasmodium prolyl-tRNA synthetase inhibitors that overcome halofuginone resistance” (Nature Communications, 2022).
“And” between values parts separate entries of the source, which are not always exact repeats. Equal values may be shown once. Read-outs that look alike come from different tables or passages of the source.

Columns and labels:
P. falciparum Dd2-2D4 = assay: P. falciparum asexual blood stage (ABS) growth assay, SYBR Green, 72 h, wild-type parasites; format: cell-based, Plasmodium falciparum; conditions: Plasmodium falciparum
[1] = tested on: halofuginone-induced P. falciparum (elevated proline homeostasis); assay: P. falciparum ABS growth assay, SYBR Green, 72 h, halofuginone-induced parasites; format: cell-based, Plasmodium falciparum; conditions: Plasmodium falciparum, DD2; halofuginone-induced ABS parasites, 72 h; read-out: Dd2 (EC50 [nM]) Halofuginone-induced
Description: (§1) Parasites were maintained under standard culture conditions as described previously[56],[57]. […] The P. falciparum Dd2 cell lines used in this study (Dd2-2D4, halofuginone-induced, and HFGR-I) have previously undergone whole genome sequencing in our labs. They were also routinely assayed and EC50 values determined using the ABS growth assay (see below) with a panel of standard antimalarial compounds, including halofuginone which has differential activity for the three Dd2 lines used in these experiments. Data were cross-referenced for consistency with literature reported values and data previously acquired in the lab.
(§2) This assay was performed as previously described. In short, P. falciparum erythrocytic-stage parasites at 1% parasitemia and 1% hematocrit in RPMI + 0.5% Albumax were seeded at 40 μL/well in 384-well plates with test compounds in triplicate, dose-response format with 10 μM dihydroartemisinin as a kill-control and blank (no compound) wells as a growth-control. […] After 72 h, growth was quantified by measuring fluorescence (Molecular Devices SpectraMax iD5) following SYBR Green 1 staining. Data were analyzed in Excel and plotted in PRISM (V. 8.4.3–9.1.0, GraphPad).

[2] = tested on: HFGR-I P. falciparum (elevated proline homeostasis and PfcProRS^L482H); assay: P. falciparum ABS growth assay, SYBR Green, 72 h, HFGR-I parasites; format: cell-based, Plasmodium falciparum; conditions: Plasmodium falciparum, DD2; HFGR-I ABS parasites, 72 h; read-out: Dd2 (EC50 [nM]) HFGR-I
Description: as §1, §2

PfcProRS = target: T1, PfcProRS (Plasmodium falciparum, UniProt Q8I5R7); format: binding; conditions: for Normalized response, dose-response replicates (SI Fig 14): replicates 1-3, listed as Glyburide (28)
T1 construct: made in house; host or cells: E. coli SoluBL-21
T1 sequence (Q8I5R7 249-746): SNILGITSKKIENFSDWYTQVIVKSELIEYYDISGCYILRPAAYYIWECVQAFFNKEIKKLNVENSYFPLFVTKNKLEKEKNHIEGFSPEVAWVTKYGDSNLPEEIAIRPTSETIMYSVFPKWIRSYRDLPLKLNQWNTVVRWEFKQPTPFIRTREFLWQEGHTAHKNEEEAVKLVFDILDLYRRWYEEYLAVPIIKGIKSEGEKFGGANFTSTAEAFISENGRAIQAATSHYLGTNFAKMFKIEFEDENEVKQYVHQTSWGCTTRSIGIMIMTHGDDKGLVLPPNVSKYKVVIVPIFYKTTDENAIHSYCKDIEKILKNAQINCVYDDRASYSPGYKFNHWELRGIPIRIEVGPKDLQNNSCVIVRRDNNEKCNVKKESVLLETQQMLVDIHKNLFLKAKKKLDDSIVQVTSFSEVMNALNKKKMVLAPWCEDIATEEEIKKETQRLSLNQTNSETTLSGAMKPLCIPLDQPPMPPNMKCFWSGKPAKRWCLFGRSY

HsProRS = HsProRS (Homo sapiens, UniProt P07814); assay: TR-FRET ligand displacement assay with tracer MAT379 (CoraFluor-1-Halo and anti-His6 antibody formats); format: binding; parameters: made in house; host or cells: E. coli SoluBL-21; conditions: for normalized TR-FRET signal (dose-response replicates): SI Fig 15, listed as Glyburide (28)
HsProRS, sequence (P07814 996-1512): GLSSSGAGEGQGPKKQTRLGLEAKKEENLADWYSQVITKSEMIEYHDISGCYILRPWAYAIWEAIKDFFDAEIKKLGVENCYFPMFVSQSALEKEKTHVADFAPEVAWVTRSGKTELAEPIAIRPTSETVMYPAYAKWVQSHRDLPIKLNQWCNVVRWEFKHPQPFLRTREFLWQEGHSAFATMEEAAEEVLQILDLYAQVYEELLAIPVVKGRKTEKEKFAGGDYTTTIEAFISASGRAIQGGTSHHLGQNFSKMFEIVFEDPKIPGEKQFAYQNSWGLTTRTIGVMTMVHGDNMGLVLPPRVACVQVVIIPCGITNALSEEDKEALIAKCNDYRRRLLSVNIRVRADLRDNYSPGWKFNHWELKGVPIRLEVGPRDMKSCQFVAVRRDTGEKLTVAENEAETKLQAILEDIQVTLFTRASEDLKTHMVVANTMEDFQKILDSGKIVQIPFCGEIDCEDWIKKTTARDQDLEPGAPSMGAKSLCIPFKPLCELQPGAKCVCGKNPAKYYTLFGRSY

SMILES: COc1ccc(Cl)cc1C(=O)NCCc1ccc(S(=O)(=O)NC(=O)NC2CCCCC2)cc1 [Glyburide, reference compound]
- EC50 (P. falciparum Dd2-2D4; DD2, SI Fig 16b, values on -log scale, read-out: ABS - Dd2-2D4 (converted)): 75700 nM
- EC50 (P. falciparum Dd2-2D4; wild-type Dd2-2D4 ABS parasites, 72 h, read-out: Dd2 (EC50 [nM]) wt): 75600 nM
- EC50 [1]: 73600 nM
- EC50 [2]: 69600 nM
- binding mode with respect to substrates (ATP, proline) (PfcProRS): ATP- and proline-competitive
- selectivity for PfcProRS over HsProRS (PfcProRS): > 30 fold
- Normalized response, dose-response replicates (SI Fig 14) (PfcProRS; Log[inhibitor] (M) -4.000): 9.02E-01 and 9.90E-01 and 8.86E-01
- Normalized response, dose-response replicates (SI Fig 14) (PfcProRS; Log[inhibitor] (M) -4.301): 1.05E+00 and 1.04E+00 and 1.16E+00
- Normalized response, dose-response replicates (SI Fig 14) (PfcProRS; Log[inhibitor] (M) -4.601): 1.10E+00 and 1.11E+00 and 1.09E+00
- Normalized response, dose-response replicates (SI Fig 14) (PfcProRS; Log[inhibitor] (M) -4.904): 1.18E+00 and 1.08E+00 and 1.07E+00
- Normalized response, dose-response replicates (SI Fig 14) (PfcProRS; Log[inhibitor] (M) -5.208): 9.30E-01 and 1.21E+00 and 1.10E+00
- Normalized response, dose-response replicates (SI Fig 14) (PfcProRS; Log[inhibitor] (M) -5.509): 1.06E+00 and 9.98E-01 and 1.05E+00
- Normalized response, dose-response replicates (SI Fig 14) (PfcProRS; Log[inhibitor] (M) -5.796): 9.95E-01 and 9.65E-01 and 1.02E+00
- Normalized response, dose-response replicates (SI Fig 14) (PfcProRS; Log[inhibitor] (M) -6.108): 9.29E-01 and 8.37E-01 and 1.06E+00
- Normalized response, dose-response replicates (SI Fig 14) (PfcProRS; Log[inhibitor] (M) -6.409): 9.49E-01 and 9.10E-01 and 8.70E-01
- Normalized response, dose-response replicates (SI Fig 14) (PfcProRS; Log[inhibitor] (M) -6.710): 9.85E-01 and 9.81E-01 and 9.34E-01
- Normalized response, dose-response replicates (SI Fig 14) (PfcProRS; Log[inhibitor] (M) -7.000): 1.05E+00 (2×) and 1.07E+00
- Normalized response, dose-response replicates (SI Fig 14) (PfcProRS; Log[inhibitor] (M) -7.301): 1.02E+00 and 9.36E-01 and 1.04E+00
- Normalized response, dose-response replicates (SI Fig 14) (PfcProRS; Log[inhibitor] (M) -7.602): 8.75E-01 and 9.05E-01 and 1.01E+00
- Normalized response, dose-response replicates (SI Fig 14) (PfcProRS; Log[inhibitor] (M) -8.000): 1.03E+00 and 1.08E+00 and 9.17E-01
- Normalized response, dose-response replicates (SI Fig 14) (PfcProRS; Log[inhibitor] (M) -8.301): 1.03E+00 and 8.92E-01 and 1.05E+00
- HsProRS % signal at 100 μM, + 100 μM proline (HsProRS; + 100 μM proline, 100 μM): 92.6%
- Kd (HsProRS; HsProRS (KD [nM]) + ATP, 500 μM ATP, 250 nM MAT379): 30900 nM
- Kd (HsProRS; HsProRS (KD [nM]) + proline, 100 μM proline, 250 nM MAT379): > 50000 nM
- Kd (HsProRS; HsProRS (KD [nM]) −, absence of substrates, 250 nM MAT379): 73900 nM
- Kd (HsProRS; HsProRS KD + 100 μM proline, bound, + 100 μM proline, bound given in μM): > 50900 nM
- normalized TR-FRET signal (dose-response replicates) (HsProRS; Log[inhibitor] (M) -3.99976): 4.60E-01 and 4.45E-01 and 5.24E-01
- normalized TR-FRET signal (dose-response replicates) (HsProRS; Log[inhibitor] (M) -4.3009): 6.36E-01 and 5.89E-01 and 6.44E-01
- normalized TR-FRET signal (dose-response replicates) (HsProRS; Log[inhibitor] (M) -4.60199): 8.28E-01 and 7.19E-01 and 8.15E-01
- normalized TR-FRET signal (dose-response replicates) (HsProRS; Log[inhibitor] (M) -4.90248): 9.22E-01 and 9.13E-01 and 9.32E-01
- normalized TR-FRET signal (dose-response replicates) (HsProRS; Log[inhibitor] (M) -5.20323): 1.00E+00 and 9.33E-01 (2×)
- normalized TR-FRET signal (dose-response replicates) (HsProRS; Log[inhibitor] (M) -5.51347): 9.75E-01 (2×) and 1.00E+00
- normalized TR-FRET signal (dose-response replicates) (HsProRS; Log[inhibitor] (M) -5.79595): 7.95E-01 and 8.60E-01 and 9.98E-01
- normalized TR-FRET signal (dose-response replicates) (HsProRS; Log[inhibitor] (M) -6.10794): 8.65E-01 and 8.44E-01 and 8.55E-01
- normalized TR-FRET signal (dose-response replicates) (HsProRS; Log[inhibitor] (M) -6.40526): 9.62E-01 and 9.85E-01 and 1.00E+00
- normalized TR-FRET signal (dose-response replicates) (HsProRS; Log[inhibitor] (M) -6.7137): 9.69E-01 and 9.06E-01 and 9.96E-01
- normalized TR-FRET signal (dose-response replicates) (HsProRS; Log[inhibitor] (M) -7): 8.09E-01 and 8.06E-01 and 9.15E-01
- normalized TR-FRET signal (dose-response replicates) (HsProRS; Log[inhibitor] (M) -7.331): 8.96E-01 and 8.92E-01 and 9.69E-01
- normalized TR-FRET signal (dose-response replicates) (HsProRS; Log[inhibitor] (M) -7.57403): 9.06E-01 and 7.74E-01 and 8.73E-01
- normalized TR-FRET signal (dose-response replicates) (HsProRS; Log[inhibitor] (M) -7.87506): 6.90E-01 and 8.76E-01 and 8.40E-01
- normalized TR-FRET signal (dose-response replicates) (HsProRS; Log[inhibitor] (M) -8.17609): 9.01E-01 and 9.35E-01 and 9.12E-01
